# Data published in PubChem BioAssay (NCI).
#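 These data come from cells grown in 96-well plates and exposed to compound for 48 hours at five concentrations. GI50 marks 50% less growth. The concentration for full growth arrest is given as TGI.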
# Experiments:
# Assay in all cases: growth of human tumour cells (NCI), 48 h
# HCC-2998 colon = tested on: HCC-2998 colon
# M14 melanoma = tested on: M14 melanoma
# SR leukemia = tested on: SR leukemia
# SNB-19 CNS = tested on: SNB-19 CNS
# NCI-H460 lung = tested on: NCI-H460 lung
# SF-539 CNS = tested on: SF-539 CNS
# SK-OV-3 ovarian = tested on: SK-OV-3 ovarian
# ACHN renal = tested on: ACHN renal
# HOP-62 NSCLC = tested on: HOP-62 NSCLC
# T-47D breast = tested on: T-47D breast
SMILES,TGI (HCC-2998 colon) [µM],TGI (M14 melanoma) [µM],TGI (SR leukemia) [µM],TGI (SNB-19 CNS) [µM],TGI (NCI-H460 lung) [µM],TGI (SF-539 CNS) [µM],TGI (SK-OV-3 ovarian) [µM],TGI (ACHN renal) [µM],TGI (HOP-62 NSCLC) [µM],GI50 (T-47D breast) [µM],TGI (T-47D breast) [µM],GI50 (HCC-2998 colon) [µM],GI50 (M14 melanoma) [µM],GI50 (SNB-19 CNS) [µM],GI50 (NCI-H460 lung) [µM],GI50 (SF-539 CNS) [µM],GI50 (SK-OV-3 ovarian) [µM],GI50 (ACHN renal) [µM],GI50 (HOP-62 NSCLC) [µM],GI50 (SR leukemia) [µM]
CCOC(=O)NC(=O)c1cn(C2OC(CO)C(O)C2O)c(=O)[nH]c1=O (configuration not stated),> 100,> 100,> 100,> 100,> 100,> 100,> 100,> 100,> 100,–,–,–,–,–,–,–,–,–,–,–
S=C(Nc1ccccc1)N1CCn2c1nsc2=Nc1ccccc1,> 100,> 100,–,> 100,> 100,> 100,> 100,> 100,> 100,> 100,> 100,> 100,> 100,> 100,> 100,> 100,> 100,50.3,> 100,–
COC(=O)C12C3C4C1C1C2C3C41C(=O)N(C(C)C)C(C)C (configuration not stated),> 100,> 100,> 100,> 100,> 100,> 100,> 100,> 100,> 100,–,–,–,–,–,–,–,–,–,–,–
CCC1(CC)C(=O)[N-]C(=O)[N-]C1=O.[Au+].[Au+].c1ccc([PH+](c2ccccc2)c2ccccc2)cc1.c1ccc([PH+](c2ccccc2)c2ccccc2)cc1,3.41,2.05,–,–,4.69,–,3.11,3.07,–,–,–,1.98,0.752,–,1.99,–,1.73,1.7,–,–
CCOC(=O)/C(C#N)=C(N)/C(=N\Nc1cccc(C(F)(F)F)c1)C(=O)OCC,> 100,> 100,> 100,> 100,–,> 100,> 100,> 100,> 100,–,–,–,–,–,–,–,–,–,–,–
COc1cc(/C=C\c2cc(OC)c(OC)c(OC)c2)cc(NS(=O)(=O)c2cccc(Cl)c2)c1OC,60.6,> 100,–,> 100,> 100,–,> 100,> 100,> 100,39.5,> 100,0.313,0.0344,0.214,0.0362,–,1.15,0.109,3.16,–
O=C(O)c1oc2cccc3c2c1CCC3,> 100,> 100,> 100,> 100,> 100,> 100,> 100,> 100,> 100,–,–,–,–,–,–,–,–,–,–,–
C(#Cc1ccccc1C#Cc1ccccn1)c1ccccn1,14.5,> 100,–,39.3,58.8,40.2,37.9,29.6,> 100,19.4,46.3,4.77,22.1,18,23.1,21.3,16.5,15.6,25.6,–
Cc1ccc(SCC(O)=C2C(=O)CCCC2=O)cc1,–,> 100,> 100,> 100,> 100,> 100,> 100,> 100,> 100,–,–,–,–,–,–,–,–,–,–,–
CC(=O)NS(=O)(=O)c1ccc(-n2nc(-c3ccccc3)cc2C2=CC(=O)C=CC2=O)cc1,–,> 100,–,> 100,> 100,–,–,> 100,> 100,> 100,> 100,–,> 100,> 100,> 100,–,–,> 100,> 100,–
N[C@H](C(=O)O)[C@@H](Cl)CC(=O)O,> 100,> 100,–,> 100,> 100,> 100,> 100,> 100,> 100,–,–,–,–,–,–,–,–,–,–,–
CS(=O)(=O)Nc1cc(-c2ccc3ncnc(Nc4cccc(Cl)c4F)c3c2)cnc1Cl,5.01,17,–,16.1,> 100,7.98,8.81,> 100,60.7,0.382,10.6,1.66,3.17,2.83,4.09,2.26,1.99,4.09,2.48,–
CC(=O)O[C@H](C[C@H](C(C)C)N(C)C(=O)[C@@H](NC(=O)[C@H]1CCCCN1C)C(C)(C)C)c1nc(C(=O)N[C@@H](Cc2ccccc2)C[C@H](C)C(=O)O)cs1,> 8.5,–,> 25,> 25,> 25,0.0046,> 25,> 25,> 25,–,–,< 0.0025,< 0.0025,< 0.0025,< 0.0025,< 0.0025,< 0.0025,< 0.0025,< 0.0025,< 0.0025
CCCCCCCCCCCCCCC(O)C1CCC(C(O)CCC(O)CCCCCC(O)CC2=CC(C)OC2=O)O1 (configuration not stated),4.94,22.8,–,11.1,–,17.8,15,–,7.77,–,–,–,–,–,–,–,–,–,–,–
O=C1C2=C(c3ccccc31)C(c1ccc(Cl)cc1)NC(=S)N2 (configuration not stated),–,54.6,–,96,> 100,29.6,> 100,> 100,> 100,–,–,–,–,–,–,–,–,–,–,–
COc1cc(C(=O)C/C(CCC(=O)Nc2ccc(Cl)cc2Cl)=N/Nc2nnc(C)n2N)ccc1O,> 100,> 100,> 100,> 100,> 100,> 100,> 100,> 100,> 100,–,–,–,–,–,–,–,–,–,–,–
O=c1cccccc1NCCNc1cccccc1=O,–,> 100,> 100,> 100,> 100,> 100,> 100,> 100,> 100,–,–,–,–,–,–,–,–,–,–,–
O=C(Nc1ccccc1C(=O)O)C(=O)C(C(=O)c1ccccc1-c1ccccc1)C1OC(=O)c2ccccc21 (configuration not stated),30.6,33.4,71.1,35.2,32.7,35.8,94,92.3,37.8,–,–,–,–,–,–,–,–,–,–,–
C[C@@H](c1ccccc1)N(CC#N)C1CCC[C@H]1O (some centres not stated),> 100,> 100,–,> 100,> 100,> 100,> 100,> 100,> 100,–,–,–,–,–,–,–,–,–,–,–
